The text below walks through data of ChEMBL document CHEMBL1909046, “DrugMatrix in vitro pharmacology data”.

Usually IC50 stands for the concentration that inhibits the measured activity by half.

Assay [1] is described as follows: DRUGMATRIX: Sodium/nucleoside co-transporter radioligand binding (ligand: nitrobenzylthioinosine). The class given is cell membranes, Cavia porcellus, Dunkin-Hartley, Cerebral cortex, Membrane. The settings on record: Not Active = under 50% inhibition at 10 µM.
Assay [2] concerns the target Carbonic anhydrase 2 (Homo sapiens, UniProt P00918). Put plainly: DRUGMATRIX: Carbonic Anhydrase II enzyme inhibition (substrate: 4-Nitrophenyl acetate (4-NPA)). The format is tissue-based, Erythrocyte. The settings on record: erythrocyte; Not Active = under 50% inhibition at 10 µM.
The target of assay [3] is Insulin receptor (Rattus norvegicus, UniProt P15127). The format is cell membranes, Wistar, Liver, Membrane. Note: in other assays of this panel Not Active means under 50% inhibition at 10 µM.
Assay [4] has as its target T1, Polyunsaturated fatty acid lipoxygenase ALOX15 (Oryctolagus cuniculus, UniProt P12530).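 Note: inhibition of 15-lipoxygenase enzyme activity measured with linoleic acid as the substrate; in other assays of this panel Not Active means under 50% inhibition at 10 µM.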
T1 sequence (P12530 whole entry): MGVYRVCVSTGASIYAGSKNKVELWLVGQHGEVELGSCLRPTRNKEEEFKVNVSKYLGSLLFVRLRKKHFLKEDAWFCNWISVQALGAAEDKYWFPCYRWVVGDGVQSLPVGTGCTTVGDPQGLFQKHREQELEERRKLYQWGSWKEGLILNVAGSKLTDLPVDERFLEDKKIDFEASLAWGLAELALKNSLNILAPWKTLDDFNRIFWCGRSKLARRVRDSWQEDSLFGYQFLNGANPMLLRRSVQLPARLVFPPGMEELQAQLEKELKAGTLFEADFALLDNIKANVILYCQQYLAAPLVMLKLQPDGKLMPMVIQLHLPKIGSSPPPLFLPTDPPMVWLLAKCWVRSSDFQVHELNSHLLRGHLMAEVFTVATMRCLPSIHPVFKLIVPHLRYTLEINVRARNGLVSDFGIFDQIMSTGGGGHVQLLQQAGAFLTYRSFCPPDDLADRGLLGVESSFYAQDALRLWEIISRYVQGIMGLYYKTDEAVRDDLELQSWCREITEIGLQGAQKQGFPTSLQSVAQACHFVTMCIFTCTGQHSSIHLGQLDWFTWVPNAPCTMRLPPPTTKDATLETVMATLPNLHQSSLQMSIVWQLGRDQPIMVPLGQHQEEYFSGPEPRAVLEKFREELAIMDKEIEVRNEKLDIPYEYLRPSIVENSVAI
The assay can be described thus: biochemical. The format is tissue-based, Reticulocytes. Conditions: reticulocytes.

Assay [5] has as its target Delta-type opioid receptor (Homo sapiens, UniProt P41143). The format is cell membranes, HEK293, Membrane. Conditions: hek293. Note: in other assays of this panel Not Active means under 50% inhibition at 10 µM.
In assay [6] the target is T2, Interstitial collagenase (Homo sapiens, UniProt P03956).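 Note: MMP-1 enzyme inhibition assay using a peptide substrate; in other assays of this panel Not Active means under 50% inhibition at 10 µM.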
T2 sequence (P03956 whole entry): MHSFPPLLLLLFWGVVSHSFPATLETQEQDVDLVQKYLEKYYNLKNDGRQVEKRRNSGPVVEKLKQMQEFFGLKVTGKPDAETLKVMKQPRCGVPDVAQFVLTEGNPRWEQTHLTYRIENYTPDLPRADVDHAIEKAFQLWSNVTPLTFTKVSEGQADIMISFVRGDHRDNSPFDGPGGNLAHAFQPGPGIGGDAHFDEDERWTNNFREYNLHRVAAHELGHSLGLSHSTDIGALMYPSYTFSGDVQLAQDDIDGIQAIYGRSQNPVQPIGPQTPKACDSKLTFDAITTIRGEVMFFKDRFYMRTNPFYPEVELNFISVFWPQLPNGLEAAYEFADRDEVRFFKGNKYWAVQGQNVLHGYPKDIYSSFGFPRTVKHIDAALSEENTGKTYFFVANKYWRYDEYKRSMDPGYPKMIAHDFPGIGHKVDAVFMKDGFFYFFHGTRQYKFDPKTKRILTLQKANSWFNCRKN
Put plainly: biochemical. The format is tissue-based, Rheumatoid synovial fibroblasts.

Assay [7] has as its target Mitogen-activated protein kinase 1 (Homo sapiens, UniProt P28482). Put plainly: DRUGMATRIX: Protein Serine/Threonine Kinase, ERK2 enzyme inhibition (substrate: Myelin Basic Protein). Also on record: species or system Escherichia coli. The settings on record: Not Active = under 50% inhibition at 10 µM.

Mitogen-activated protein kinase 1, sequence (P28482 whole entry): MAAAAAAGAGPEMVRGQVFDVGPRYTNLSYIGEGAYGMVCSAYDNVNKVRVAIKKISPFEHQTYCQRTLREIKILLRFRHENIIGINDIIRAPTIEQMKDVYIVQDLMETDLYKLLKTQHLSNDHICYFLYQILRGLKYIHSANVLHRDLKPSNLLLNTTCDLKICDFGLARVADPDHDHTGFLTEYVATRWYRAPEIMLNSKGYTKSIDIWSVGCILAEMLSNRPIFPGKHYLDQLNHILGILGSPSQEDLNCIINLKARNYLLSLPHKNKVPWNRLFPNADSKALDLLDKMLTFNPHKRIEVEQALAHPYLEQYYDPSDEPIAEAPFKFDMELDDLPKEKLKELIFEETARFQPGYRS
Insulin receptor, sequence (P15127 27-759 limits assumed): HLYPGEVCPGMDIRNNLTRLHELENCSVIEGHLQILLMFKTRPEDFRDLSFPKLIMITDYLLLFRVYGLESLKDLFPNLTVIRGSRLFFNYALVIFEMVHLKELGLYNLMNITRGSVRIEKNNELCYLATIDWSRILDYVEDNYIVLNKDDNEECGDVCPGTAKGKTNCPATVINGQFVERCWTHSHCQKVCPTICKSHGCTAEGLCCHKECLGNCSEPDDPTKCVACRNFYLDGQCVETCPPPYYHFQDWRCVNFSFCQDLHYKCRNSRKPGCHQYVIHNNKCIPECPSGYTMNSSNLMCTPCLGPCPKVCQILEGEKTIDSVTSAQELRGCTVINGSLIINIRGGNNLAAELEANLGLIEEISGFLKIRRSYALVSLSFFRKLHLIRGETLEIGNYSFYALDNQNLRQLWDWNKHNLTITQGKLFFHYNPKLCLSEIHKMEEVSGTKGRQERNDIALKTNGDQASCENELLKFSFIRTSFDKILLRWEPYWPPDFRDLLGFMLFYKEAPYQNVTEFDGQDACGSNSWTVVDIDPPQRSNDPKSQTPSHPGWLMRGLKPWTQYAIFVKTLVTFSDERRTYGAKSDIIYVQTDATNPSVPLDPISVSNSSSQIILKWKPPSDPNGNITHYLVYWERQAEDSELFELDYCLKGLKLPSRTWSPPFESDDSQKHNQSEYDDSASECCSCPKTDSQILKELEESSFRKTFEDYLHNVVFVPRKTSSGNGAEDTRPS
Insulin receptor, sequence (P15127 764-1383 limits assumed): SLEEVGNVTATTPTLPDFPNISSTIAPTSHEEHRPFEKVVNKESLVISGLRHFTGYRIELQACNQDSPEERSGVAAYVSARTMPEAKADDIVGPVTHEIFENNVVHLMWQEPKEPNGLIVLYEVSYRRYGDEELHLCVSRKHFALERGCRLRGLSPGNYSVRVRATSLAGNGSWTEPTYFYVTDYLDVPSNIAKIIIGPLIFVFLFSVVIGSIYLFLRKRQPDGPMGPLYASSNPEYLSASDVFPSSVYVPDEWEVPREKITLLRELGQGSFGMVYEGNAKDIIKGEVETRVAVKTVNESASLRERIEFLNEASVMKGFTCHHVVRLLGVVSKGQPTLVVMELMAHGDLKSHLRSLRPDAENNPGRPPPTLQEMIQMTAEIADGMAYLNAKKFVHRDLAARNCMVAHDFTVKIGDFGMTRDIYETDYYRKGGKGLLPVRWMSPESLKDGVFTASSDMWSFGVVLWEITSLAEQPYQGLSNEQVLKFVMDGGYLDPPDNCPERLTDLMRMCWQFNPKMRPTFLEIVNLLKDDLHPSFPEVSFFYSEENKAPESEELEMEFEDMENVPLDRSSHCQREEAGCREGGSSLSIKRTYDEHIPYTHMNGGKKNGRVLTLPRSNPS
Delta-type opioid receptor, sequence (P41143 whole entry): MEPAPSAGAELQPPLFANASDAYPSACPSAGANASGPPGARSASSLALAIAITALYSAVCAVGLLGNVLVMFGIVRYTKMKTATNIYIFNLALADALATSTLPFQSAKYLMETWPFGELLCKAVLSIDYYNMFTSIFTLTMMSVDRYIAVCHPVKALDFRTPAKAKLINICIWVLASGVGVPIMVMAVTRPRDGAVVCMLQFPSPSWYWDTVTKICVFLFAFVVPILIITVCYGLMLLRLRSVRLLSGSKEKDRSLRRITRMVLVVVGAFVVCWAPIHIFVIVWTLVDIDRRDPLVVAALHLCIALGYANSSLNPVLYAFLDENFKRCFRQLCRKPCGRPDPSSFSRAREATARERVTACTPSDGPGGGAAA

For the compound `COc1ccc(C[C@H](N)C(=O)N[C@H]2[C@@H](O)[C@H](n3cnc4c(N(C)C)ncnc43)O[C@@H]2CO)cc1` [PUROMYCIN], the IC50 result in assay [1], in assay [2], in assay [3], in assay [4], in assay [5] and in assay [6] was “Not Active” throughout. Besides, in assay [7], the IC50 entry is “Not Active”. Further, the Ki result in assay [1] is “Not Active”.
For CARBOXYMETHYLCELLULOSE, the IC50 result in assay [1], in assay [2], in assay [3], in assay [4], in assay [5] and in assay [6] was “Not Active” throughout. The IC50 in assay [7] (read-out: IC50) was 216 nM. For the same compound, the Ki entry in assay [1], in assay [2], in assay [3], in assay [4], in assay [5] and in assay [6] was “Not Active” throughout.
As for CHROMIC CHLORIDE, the IC50 entry in assay [1], in assay [2], in assay [3], in assay [4], in assay [5] and in assay [6] was “Not Active” each time. In assay [7], the IC50 entry is “Not Active”. The Ki entry in assay [1], in assay [2], in assay [3], in assay [4], in assay [5] and in assay [6] was “Not Active” in each case. Besides, the Ki result in assay [7] is given as “Not Active”.
For the compound COPPER(II) OXIDE, the IC50 entry in assay [1], in assay [2], in assay [3], in assay [4], in assay [5] and in assay [6] was “Not Active” in each case. Further, the IC50 entry in assay [7] is “Not Active”. Besides, the Ki result in assay [1], in assay [2], in assay [3], in assay [4], in assay [5] and in assay [6] was “Not Active” each time. The Ki result in assay [7] is recorded as “Not Active”.
POVIDONE: the IC50 result in assay [1], in assay [2], in assay [3], in assay [4], in assay [5] and in assay [6] was “Not Active” in each case. For the same compound, in assay [7], the IC50 result is “Not Active”. Besides, the Ki result in assay [1], in assay [2], in assay [3], in assay [4], in assay [5] and in assay [6] was “Not Active” in each case. Moreover, in assay [7], the Ki result was “Not Active”.
